Data from ChEMBL document CHEMBL3885881, “DrugMatrix”.

Species on record: Rattus norvegicus
Assay: DrugMatrix - Regimen: Daily Repeat
Format: toxicity, organism-based, Sprague-Dawley
Parameters: regimen Daily Repeat, gender Male, age 6-8 weeks
Details: in vivo, po, route oral GAVAGE, vehicle 100 % WATER; for ABSOLUTE BASOPHIL / ABSOLUTE EOSINOPHIL / ABSOLUTE LYMPHOCYTE / ABSOLUTE MONOCYTE / ABSOLUTE SEGMENTED NEUTROPHIL / BASOPHIL / EOSINOPHIL / ERYTHROCYTE COUNT / HEMATOCRIT / HEMOGLOBIN / LEUKOCYTE COUNT / LYMPHOCYTE / MEAN CORPUSCULAR HEMOGLOBIN / MEAN CORPUSCULAR HEMOGLOBIN CONCENTRATION / MEAN CORPUSCULAR VOLUME / MONOCYTE / NEUTROPHIL / NUCLEATED RED BLOOD CELLS / PLATELET COUNT: tissue Blood; for ALANINE AMINOTRANSFERASE / ALBUMIN / ALKALINE PHOSPHATASE / ASPARTATE AMINOTRANSFERASE / BLOOD UREA NITROGEN / CARBON DIOXIDE / CHLORIDE / CHOLESTEROL / CREATINE PHOSPHOKINASE / CREATININE / GLUCOSE / LACTATE DEHYDROGENASE / LIPASE / PHOSPHORUS / POTASSIUM / SODIUM / TOTAL BILIRUBIN / TOTAL PROTEIN / URIC ACID: tissue Plasma
[1] = 0 mg/kg, 72 h, dose level Control, time 3 day
[2] = 0 mg/kg, 120 h, dose level Control, time 5 day
[3] = 100 mg/kg, 72 h, dose level Low, time 3 day

CC(C)(S)[C@@H](N)C(=O)O [PENICILLAMINE]
ABSOLUTE BASOPHIL [1]: 0 CELLS/uL | ABSOLUTE EOSINOPHIL [1]: 0 CELLS/uL | ABSOLUTE LYMPHOCYTE [1]: 7802.17 CELLS/uL | ABSOLUTE MONOCYTE [1]: 13.5 CELLS/uL | ABSOLUTE SEGMENTED NEUTROPHIL [1]: 617.67 CELLS/uL | BASOPHIL [1]: 0% | EOSINOPHIL [1]: 0% | ERYTHROCYTE COUNT [1]: 5.35 x10E6/uL | HEMATOCRIT [1]: 33.02% | HEMOGLOBIN [1]: 12.88 G/DL | LEUKOCYTE COUNT [1]: 8.43 x10E3/uL | LYMPHOCYTE [1]: 92.67% | MEAN CORPUSCULAR HEMOGLOBIN [1]: 24.12 pg | MEAN CORPUSCULAR HEMOGLOBIN CONCENTRATION [1]: 39.03 G/DL | MEAN CORPUSCULAR VOLUME [1]: 61.8 fL | MONOCYTE [1]: 0.17% | NEUTROPHIL [1]: 7.17% | NUCLEATED RED BLOOD CELLS [1]: 0 /100WBC | PLATELET COUNT [1]: 1124.83 x10E3/uL | ALANINE AMINOTRANSFERASE [1]: 54.17 u/L | ALBUMIN [1]: 4.07 G/DL | ALKALINE PHOSPHATASE [1]: 383.83 u/L | ASPARTATE AMINOTRANSFERASE [1]: 82.17 u/L | BLOOD UREA NITROGEN [1]: 13.67 mg/dL | CARBON DIOXIDE [1]: 31 mmol/L | CHLORIDE [1]: 100.83 MEQ/L | CHOLESTEROL [1]: 65.17 mg/dL | CREATINE PHOSPHOKINASE [1]: 228.33 u/L | CREATININE [1]: 0.12 mg/dL | GLUCOSE [1]: 148 mg/dL | LACTATE DEHYDROGENASE [1]: 97.83 u/L | LIPASE [1]: 9.17 u/L | PHOSPHORUS [1]: 9.75 mg/dL | POTASSIUM [1]: 5.85 MEQ/L | SODIUM [1]: 147.02 MEQ/L | TOTAL BILIRUBIN [1]: 0.18 mg/dL | TOTAL PROTEIN [1]: 6.1 G/DL | URIC ACID [1]: 0.5 mg/dL | ABSOLUTE BASOPHIL [2]: 0 CELLS/uL | ABSOLUTE EOSINOPHIL [2]: 0 CELLS/uL | ABSOLUTE LYMPHOCYTE [2]: 10538 CELLS/uL | ABSOLUTE MONOCYTE [2]: 15.83 CELLS/uL | ABSOLUTE SEGMENTED NEUTROPHIL [2]: 762.83 CELLS/uL | BASOPHIL [2]: 0% | EOSINOPHIL [2]: 0% | ERYTHROCYTE COUNT [2]: 5.49 x10E6/uL | HEMATOCRIT [2]: 34.63% | HEMOGLOBIN [2]: 13.72 G/DL | LEUKOCYTE COUNT [2]: 11.32 x10E3/uL | LYMPHOCYTE [2]: 92.67% | MEAN CORPUSCULAR HEMOGLOBIN [2]: 24.97 pg | MEAN CORPUSCULAR HEMOGLOBIN CONCENTRATION [2]: 39.57 G/DL | MEAN CORPUSCULAR VOLUME [2]: 63.05 fL | MONOCYTE [2]: 0.17% | NEUTROPHIL [2]: 7.17% | NUCLEATED RED BLOOD CELLS [2]: 0.17 /100WBC | PLATELET COUNT [2]: 802 x10E3/uL | ALANINE AMINOTRANSFERASE [2]: 50.5 u/L | ALBUMIN [2]: 4.07 G/DL | ALKALINE PHOSPHATASE [2]: 336.83 u/L | ASPARTATE AMINOTRANSFERASE [2]: 81 u/L | BLOOD UREA NITROGEN [2]: 14.17 mg/dL | CARBON DIOXIDE [2]: 32 mmol/L | CHLORIDE [2]: 98.33 MEQ/L | CHOLESTEROL [2]: 69.17 mg/dL | CREATINE PHOSPHOKINASE [2]: 253.33 u/L | CREATININE [2]: 0.13 mg/dL | GLUCOSE [2]: 153.67 mg/dL | LACTATE DEHYDROGENASE [2]: 157 u/L | LIPASE [2]: 9 u/L | PHOSPHORUS [2]: 10.78 mg/dL | POTASSIUM [2]: 6.11 MEQ/L | SODIUM [2]: 144.57 MEQ/L | TOTAL BILIRUBIN [2]: 0.15 mg/dL | TOTAL PROTEIN [2]: 6.05 G/DL | URIC ACID [2]: 0.73 mg/dL | ABSOLUTE BASOPHIL [3]: 0 CELLS/uL | ABSOLUTE EOSINOPHIL [3]: 0 CELLS/uL | ABSOLUTE LYMPHOCYTE [3]: 8040.67 CELLS/uL | ABSOLUTE MONOCYTE [3]: 62.33 CELLS/uL | ABSOLUTE SEGMENTED NEUTROPHIL [3]: 563.67 CELLS/uL | BASOPHIL [3]: 0% | EOSINOPHIL [3]: 0% | ERYTHROCYTE COUNT [3]: 5.32 x10E6/uL | HEMATOCRIT [3]: 34.33% | HEMOGLOBIN [3]: 13 G/DL | LEUKOCYTE COUNT [3]: 8.67 x10E3/uL | LYMPHOCYTE [3]: 92.67% | MEAN CORPUSCULAR HEMOGLOBIN [3]: 24.53 pg | MEAN CORPUSCULAR HEMOGLOBIN CONCENTRATION [3]: 37.9 G/DL | MEAN CORPUSCULAR VOLUME [3]: 64.67 fL | MONOCYTE [3]: 0.67% | NEUTROPHIL [3]: 6.67% | NUCLEATED RED BLOOD CELLS [3]: 0 /100WBC | PLATELET COUNT [3]: 991.33 x10E3/uL | ALANINE AMINOTRANSFERASE [3]: 51 u/L | ALBUMIN [3]: 4.03 G/DL | ALKALINE PHOSPHATASE [3]: 403.33 u/L | ASPARTATE AMINOTRANSFERASE [3]: 82.33 u/L | BLOOD UREA NITROGEN [3]: 13.67 mg/dL | CARBON DIOXIDE [3]: 32.33 mmol/L | CHLORIDE [3]: 100.33 MEQ/L | CHOLESTEROL [3]: 73.33 mg/dL | CREATINE PHOSPHOKINASE [3]: 332 u/L | CREATININE [3]: 0.11 mg/dL | GLUCOSE [3]: 145.67 mg/dL | LACTATE DEHYDROGENASE [3]: 165 u/L | LIPASE [3]: 9 u/L | PHOSPHORUS [3]: 10 mg/dL | POTASSIUM [3]: 5.88 MEQ/L | SODIUM [3]: 145.23 MEQ/L | TOTAL BILIRUBIN [3]: 0.13 mg/dL | TOTAL PROTEIN [3]: 5.93 G/DL | URIC ACID [3]: 0.73 mg/dL
